From patent US20110059940A1, “2-Aryl Glycinamide Derivatives” (Bristol- Myers Squibb Company, priority 2008, published 2011)
Read-outs that look alike come from different tables or passages of the source.

Test system: β-amyloid peptide formation in human H4 cells
Assay: Inhibition of β-amyloid peptide (Aβ) formation in H4 cells overexpressing HPLAP-APP fusion protein
Type: cell-based
Description: γ-Secretase inhibitors were also evaluated using in vitro assays based on the inhibition of Aβ formation in cultured cells. Cultured human cell lines, such as HEK293 and H4 cells, which express APP and γ-secretase activity or transfected derivative cell lines that overexpress wild-type APP, mutant APP, or APP fusion proteins will secrete Aβ peptides into the culture media that can be quantified as previously outlined (Dovey, H. et al., J. Neurochem. 2001, 76, 173). The incubation of these cultured cells with γ-secretase inhibitors decreases the production of Aβ peptides. For instance, H4 cells stably transfected to overexpress the HPLAP-APP fusion protein described above were grown as above, detached, and adjusted to 2×10^5 cells/ml. 100 μl of the resulting suspension was then added to each well of a 96-well plate. After 4 hrs, the media was removed and replaced with 100 μl serum-free media containing various dilutions of the test compound. Plates were then incubated for 18 hrs at 37° C. and a 100 μl aliquot of the tissue culture supernatant was removed for determination of Aβ levels using time-resolved fluorescence of the homogenous sample as outlined above. The extent of Aβ inhibition was used to calculate the IC50 value for the test compound.
Representative compounds were evaluated in the above assay and were determined to inhibit Aβ formation.

[1] = class symbol, read-out: Binding affinity (IC50 in nM), activity class
[2] = number in parentheses, read-out: Binding affinity (IC50 in nM)

SMILES | IC50 [1] [nM] | IC50 [2] [nM]
NC(=O)C(c1cc(F)cc(F)c1)N(Cc1ccc(C(=O)O)cc1)S(=O)(=O)c1ccc(Cl)cc1 (stereo not drawn) [Example 2, α-[(4-Chlorobenzenesulfonyl)((4-carboxyphenyl)methyl)amino]-3,5-difluorobenzene-acetamide] | 50 to 500 | 116
CCNC(=O)c1ccc(CN(C(C(N)=O)c2cc(F)cc(F)c2)S(=O)(=O)c2ccc(Cl)cc2)cc1 (stereo not drawn) [Example 3, α-[(4-Chlorobenzenesulfonyl)((4-ethylaminocarbonylphenyl)methyl)amino]-3,5-difluorobenzeneacetamide] | 0.25 to 50 | 1.28
NC(=O)C(c1cc(F)cc(F)c1)N(Cc1ccc(F)cc1)S(=O)(=O)c1ccc(Cl)cc1 (stereo not drawn) [Example 14, α-[(4-Chlorobenzenesulfonyl)(4-fluorophenylmethyl)amino]-3,5-difluorobenzene-acetamide] | 0.25 to 50 | –
CCN1CCc2cc(CN(C(C(N)=O)c3cc(F)cc(F)c3)S(=O)(=O)c3ccc(Cl)cc3)ccc2C1=O (stereo not drawn) [Example 9, α-[(4-Chlorobenzenesulfonyl)(1-oxo-2-ethyl-1,2,3,4-tetrahydroisoquinolin-6-ylmethyl)amino]-3,5-difluorobenzeneacetamide] | 0.25 to 50 | –
NC(=O)C(c1cc(F)cc(F)c1)N(Cc1ccc(C(=O)NC2CCC2)cc1)S(=O)(=O)c1ccc(Cl)cc1 (stereo not drawn) [Example 8] | 0.25 to 50 | 0.93
CCNC(=O)c1ccc(CN(C(C(N)=O)c2ccccc2C)S(=O)(=O)c2ccc(Cl)cc2)cc1 (stereo not drawn) [Example 31, α-[(4-Chlorobenzenesulfonyl)((4-ethylaminocarbonylphenyl)methyl)amino]-2-methylbenzene-acetamide] | 50 to 500 | 127
NC(=O)C(c1cc(F)cc(F)c1)N(Cc1ccc(C(=O)N2CCC2)cc1)S(=O)(=O)c1ccc(Cl)cc1 (stereo not drawn) [Example 5, α-[(4-Chlorobenzenesulfonyl)(4-azetidinylcarbonylphenylmethyl)amino]-3,5-difluorobenzene-acetamide] | 0.25 to 50 | –
Cc1nc(-c2ccc(CN(C(C(N)=O)c3cc(F)cc(F)c3)S(=O)(=O)c3ccc(Cl)cc3)cc2)no1 (stereo not drawn) [Example 18] | 0.25 to 50 | –

Now from value to molecule:

IC50 [1] [nM] | IC50 [2] [nM] | SMILES
0.25 to 50 | 9.15 | NC(=O)C(c1cc(F)cc(F)c1)N(Cc1ccc(-n2cccn2)cc1)S(=O)(=O)c1ccc(Cl)cc1 (stereo not drawn) [Example 12, α-[(4-Chlorobenzenesulfonyl)(4-pyrazolylphenylmethyl)amino]-3,5-difluorobenzene-acetamide]
0.25 to 50 | 12.4 | N#Cc1ccc(CN(C(C(N)=O)c2cc(F)cc(F)c2)S(=O)(=O)c2ccc(Cl)cc2)cc1 (stereo not drawn) [Example 16, α-[(4-Chlorobenzenesulfonyl)(4-cyanophenylmethyl)amino]-3,5-difluorobenzene-acetamide]
0.25 to 50 | – | CC(C)(C)NC(=O)c1ccc(CN(C(C(N)=O)c2cc(F)cc(F)c2)S(=O)(=O)c2ccc(Cl)cc2)cc1 (stereo not drawn) [Example 4, α-[(4-Chlorobenzenesulfonyl)(4-t-butylaminocarbonylphenylmethyl)amino]-3,5-difluorobenzeneacetamide]
0.25 to 50 | – | CC(C)(C)OC(=O)c1ccc(CN(C(C(N)=O)c2cc(F)cc(F)c2)S(=O)(=O)c2ccc(Cl)cc2)cc1 (stereo not drawn) [Example 1, α-[(4-Chlorobenzenesulfonyl)((4-t-butyloxycarbonylphenyl)methyl)amino]-3,5-difluorobenzeneacetamide]
0.25 to 50 | – | NC(=O)C(c1cc(F)cc(F)c1)N(Cc1ccc(-n2cncn2)cc1)S(=O)(=O)c1ccc(Cl)cc1 (stereo not drawn) [Example 11, α-[(4-Chlorobenzenesulfonyl)(4-(1,2,4-triazolyl)-phenylmethyl)amino]-3,5-difluorobenzene-acetamide]
0.25 to 50 | – | CNC(=O)c1ccc(CN(C(C(N)=O)c2cc(F)cc(F)c2)S(=O)(=O)c2ccc(Cl)cc2)cc1 (stereo not drawn) [Example 6, α-[(4-Chlorobenzenesulfonyl)(4-methylaminocarbonylphenylmethyl)amino]-3,5-difluorobenzene-acetamide]
0.25 to 50 | – | NC(=O)C(c1cc(F)cc(F)c1)N(Cc1ccc(-c2ncon2)cc1)S(=O)(=O)c1ccc(Cl)cc1 (stereo not drawn) [Example 19]
